From patent publication US20020026053A1, “Novel 3-(substituted) -2- indolinones compounds and use thereof as inhibitors of protein kinase activity” (priority 1997, published 2002)
Several values for one entry are separate records, joined by “and”; a condition that tells them apart may be missing. Equal entries are not always repeated.

Experiments:
FLK-1 receptor = experiment: FLK-1 Assay (cellular/catalytic ELISA, VEGF-stimulated phosphotyrosine); assay type: cell-based; design: concentration or dose not given beside the values
Description: (§1) The cellular/catalytic assays described herein are performed in an ELISA format. The general procedure is as follows: a compound is introduced to cells expressing the test kinase, either naturally or recombinantly, for a selected period of time after which, if the test kinase is a receptor, a ligand known to activate the receptor is added. The cells are lysed and the lysate is transferred to the wells of an ELISA plate previously coated with a specific antibody recognizing the substrate of the enzymatic phosphorylation reaction. Non-substrate components of the cell lysate are washed away and the amount of phosphorylation on the substrate is detected with an antibody specifically recognizing phosphotyrosine compared with control cells that were not contacted with a test compound.
An ELISA assay is conducted to measure the kinase activity of the FLK-1 receptor and more specifically, the inhibition or activation of TK activity on the FLK-1 receptor. Specifically, the following assay can be conducted to measure kinase activity of the FLK-1 receptor in cells genetically engineered to express Flk-1.
a. Corning 96-well ELISA plates (Corning Catalog No. 25805-96);
b. Cappel goat anti-rabbit IgG (catalog no. 55641);
c. PBS (Gibco Catalog No. 450-1300EB);
d. TBSW Buffer (50 mM Tris (pH 7.2), 150 mM NaCl and 0.1% Tween-20);
e. Ethanolamine stock (10% ethanolamine (pH 7.0), stored at 4° C.);
f. HNTG buffer (20 mM HEPES buffer (pH 7.5), 150 mM NaCl, 0.2% Triton X-100, and 10% glycerol);
g. EDTA (0.5 M (pH 7.0) as a 100× stock);
h. Sodium orthovanadate (0.5 M as a 100× stock);
i. Sodium pyrophosphate (0.2 M as a 100× stock);
j. NUNC 96 well V bottom polypropylene plates (Applied Scientific Catalog No. AS-72092);
k. NIH3T3 C7#3 Cells (FLK-1 expressing cells);
l. DMEM with 1× high glucose L-Glutamine (catalog No. 11965-050);
n. L-glutamine, Gibco (catalog no. 25030-016);
o. VEGF, PeproTech, Inc. (catalog no. 100-20)(kept as 1 μg/100 μl stock in Milli-Q dH2O and stored at −20° C.;
p. Affinity purified anti-FLK-1 antiserum;
q. UB40 monoclonal antibody specific for phosphotyrosine (see, Fendley, et al., 1990, Cancer Research 50:1550-1558);
r. EIA grade Goat anti-mouse IgG-POD (BioRad catalog no. 172-1011);
s. 2,2-azino-bis(3-ethylbenz-thiazoline-6-sulfonic acid (ABTS) solution (100 mM citric acid (anhydrous), 250 mM Na2HPO4 (pH 4.0), 0.5 mg/ml ABTS (Sigma catalog no. A-1888)), solution should be stored in dark at 4° C. until ready for use;
t. H2O2 (30% solution) (Fisher catalog no. H325);
u. ABTS/ H2O2 (15 ml ABTS solution, 2 μl H2O2) prepared 5 minutes before use and left at room temperature;
v. 0.2 M HCl stock in H2O;
w. dimethylsulfoxide (100%) (Sigma Catalog No. D-8418); and
y. Trypsin-EDTA (Gibco BRL Catalog No. 25200-049).
1. Coat Corning 96-well ELISA plates with 1.0 μg per well Cappel Anti-rabbit IgG antibody in 0.1M Na2CO3 pH 9.6. Bring final volume to 150 μl per well. Coat plates overnight at 4° C. Plates can be kept up to two weeks when stored at 4° C.
2. Grow cells in Growth media (DMEM, supplemented with 2.0 mM L-Glutamine, 10% FBS) in suitable culture dishes until confluent at 37° C., 5% CO2.
3. Harvest cells by trypsinization and seed in Corning 25850 polystyrene 96-well round bottom cell plates, 25,000 cells/well in 200 μl of growth media.
4. Grow cells at least one day at 37° C., 5% CO2.
5. Wash cells with D-PBS 1×.
6. Add 200 μl/well of starvation media (DMEM, 2.0 mM 1-Glutamine, 0.1% FBS). Incubate overnight at 37° C., 5% CO2.
7. Dilute Compounds 1:20 in polypropylene 96 well plates using starvation media. Dilute dimethylsulfoxide 1:20 for use in control wells.
8. Remove starvation media from 96 well cell culture plates and add 162 μl of fresh starvation media to each well.
9. Add 18 μl of 1:20 diluted compound dilution (from step 7) to each well plus the 1:20 dimethylsulfoxide dilution to the control wells (+/− VEGF), for a final dilution of 1:200 after cell stimulation. Final dimethylsulfoxide is 0.5%. Incubate the plate at 37° C., 5% CO2 for two hours.
10. […]

PDGF-R = PDGF-R Assay (cellular ELISA, U1242 cells); assay type: cell-based; design: concentration or dose not given beside the values
Description: as §1
All cell culture media, glutamine, and fetal bovine serum can be purchased from Gibco Life Technologies (Grand Island, N.Y.) unless otherwise specified. All cells are grown in a humid atmosphere of 90-95% air and 5-10% CO2 at 37° C. All cell lines are routinely subcultured twice a week and are negative for mycoplasma as determined by the Mycotect method (Gibco).
For ELISA assays, cells (U1242, obtained from Joseph Schlessinger, NYU) are grown to 80-90% confluency in growth medium (MEM with 10% FBS, NEAA, 1 mM NaPyr and 2 mM GLN) and seeded in 96-well tissue culture plates in 0.5% serum at 25,000 to 30,000 cells per well. After overnight incubation in 0.5% serum-containing medium, cells are changed to serum-free medium and treated with test compound for 2 hr in a 5% CO2, 37° C. incubator. Cells are then stimulated with ligand for 5-10 minute followed by lysis with HNTG (20 mM Hepes, 150 mM NaCl, 10% glycerol, 5 mM EDTA, 5 mM Na3VO4, 0.2% Triton X-100, and 2 mM NaPyr). Cell lysates (0.5 mg/well in PBS) are transferred to ELISA plates previously coated with receptor-specific antibody and which had been blocked with 5% milk in TBST (50 mM Tris-HCl pH 7.2, 150 mM NaCl and 0.1% Triton X-100) at room temperature for 30 min. Lysates are incubated with shaking for 1 hour at room temperature. The plates are washed with TBST four times and then incubated with polyclonal anti-phosphotyrosine antibody at room temperature for 30 minutes. Excess anti-phosphotyrosine antibody is removed by rinsing the plate with TBST four times. Goat anti-rabbit IgG antibody is added to the ELISA plate for 30 min at room temperature followed by rinsing with TBST four more times. ABTS (100 mM citric acid, 250 mM Na2HPO4 and 0.5 mg/mL 2,2′-azino-bis (3-ethylbenzthiazoline-6-sulfonic acid)) plus H2O2 ([…] 30% H2O2 to 10 ml ABTS) is added to the ELISA plates to start color development. Absorbance at 410 nm with a reference wavelength of 630 nm is recorded about 15 to 30 min after ABTS addition.

SMILES	Flk Kinase % Inhibition (P.110) (FLK-1 receptor)	PDGF Kinase % Inhibition (P.119) (PDGF-R)
Cc1c(Br)cc(Br)c2c1C(=Cc1ccccc1Sc1ccc(Cl)cc1)C(=O)N2 [10727/H05]	5.5%	−28.5%
Cc1c(Br)cc(Br)c2c1C(=Cc1cc3c(cc1Cl)OCO3)C(=O)N2 [10727/H06]	−4.4%	−40.8%
Cc1c(Br)cc(Br)c2c1C(=Cc1coc3ccccc3c1=O)C(=O)N2 [10727/H07]	−9.7%	−37.2%
Cc1c(Br)cc(Br)c2c1C(=Cc1cccc(C#N)c1)C(=O)N2 [10727/H08]	2.9%	−27.0%
Cc1c(Br)cc(Br)c2c1C(=Cc1ccc(C#N)cc1)C(=O)N2 [10727/H09]	−1.4%	−11.7%
Cc1c(Br)cc(Br)c2c1C(=Cc1cc(O)ccc1O)C(=O)N2 [10727/H10]	−8.3%	10.1%
COc1cccc(C=C2C(=O)Nc3c(Br)cc(Br)c(C)c32)c1OC [10727/H11]	3.7%	2.8%
COc1ccc(OC)c(C=C2C(=O)Nc3c(Br)cc(Br)c(C)c32)c1 [10728/H02]	−13.3%	−9.3%
COc1cccc(OC)c1C=C1C(=O)Nc2c(Br)cc(Br)c(C)c21 [10728/H03]	−2.1%	−10.6%
COc1cc(C=C2C(=O)Nc3c(Br)cc(Br)c(C)c32)cc(OC)c1 [10728/H04]	−4.3%	−5.7%
COc1cc(N(C)C)ccc1C=C1C(=O)Nc2c(Br)cc(Br)c(C)c21 [10728/H05]	1.1% and −4.4%	−10.6% and −5.3%
Cc1c(Br)cc(Br)c2c1C(=Cc1ccc3c(c1)Cc1ccccc1-3)C(=O)N2 [10728/H06]	7.9%	−25.7%
Cc1c(Br)cc(Br)c2c1C(=Cc1cccc(C(F)(F)F)c1F)C(=O)N2 [10728/H07]	1.5%	−1.7%
Cc1c(Br)cc(Br)c2c1C(=Cc1c(F)cccc1C(F)(F)F)C(=O)N2 [10728/H09]	0.7%	−6.2%
Cc1c(Br)cc(Br)c2c1C(=Cc1ccccc1OCC(=O)O)C(=O)N2 [10728/H10]	−3.8%	4.5%
COc1cc(C=C2C(=O)Nc3c(Br)cc(Br)c(C)c32)cc2c1OCO2 [10728/H11]	3.3%	−16.8%
COc1ccc2ccccc2c1C=C1C(=O)Nc2c(Br)cc(Br)c(C)c21 [10729/H02]	14.3%	2.3%
COc1ccc(C=C2C(=O)Nc3c(Br)cc(Br)c(C)c32)c2ccccc12 [10729/H03]	18.3%	−0.7%
